Patent US10053485B2, “Cytotoxic agents that preferentially target leukemia inhibitory factor (LIF) for the treatment of malignancies and as new contraceptive agents” (Evestra, Inc., priority 2015, dated 2018)

How the values were obtained:
HCT-15 = assay: NCI-60 screen, Colon Cancer panel; assay type: cell-based; details: Homo sapiens, HCT-15, 48 h
786-0 = assay: NCI-60 screen, Renal Cancer panel; assay type: cell-based; details: Homo sapiens, 786-0, 48 h
SK-MEL-5 = assay: NCI-60 screen, Melanoma panel; assay type: cell-based; details: Homo sapiens, SK-MEL-5, 48 h
SK-MEL-28 = assay: NCI-60 screen, Melanoma panel; assay type: cell-based; details: Homo sapiens, SK-MEL-28, 48 h
[1] = test system: PC3 (AR− Prostate Cancer); assay: Short term (72 h) cytotoxicity assay; assay type: cell-based; details: Homo sapiens, PC3, 72 h cytotoxicity
T-47D = assay: NCI-60 screen, Breast Cancer panel; assay type: cell-based; details: Homo sapiens, T47D, 48 h
MOLT-4 = assay: NCI-60 screen, Leukemia panel; assay type: cell-based; details: Homo sapiens, MOLT-4, 48 h
BT-549 = assay: NCI-60 screen, Breast Cancer panel; assay type: cell-based; details: Homo sapiens, BT-549, 48 h
HOP-92 = assay: NCI-60 screen, Non-Small Cell Lung Cancer panel; assay type: cell-based; details: Homo sapiens, HOP-92, 48 h
SF-539 = assay: NCI-60 screen, CNS Cancer panel; assay type: cell-based; details: Homo sapiens, SF-539, 48 h
IGROV1 = assay: NCI-60 screen, Ovarian Cancer panel; assay type: cell-based; details: Homo sapiens, IGROV-1; IGROV1, 48 h, SRB; read-out: GI50 (log10GI50) (converted)
Protocol: Additional four, 10-fold or ½ log serial dilutions are made to provide a total of five drug concentrations plus control.
For adherent cells, the assay is terminated by the addition of cold TCA. Cells are fixed in situ by the gentle addition of 50 μl of cold 50% (w/v) TCA (final concentration, 10% TCA) and incubated for 60 minutes at 4° C. The supernatant is discarded, and the plates are washed five times with tap water and air dried. Sulforhodamine B (SRB) solution (100 μl) at 0.4% (w/v) in 1% acetic acid is added to each well, and plates are incubated for 10 minutes at room temperature. After staining, unbound dye is removed by washing five times with 1% acetic acid and the plates are air dried. […] Using the seven absorbance measurements [time zero, (Tz), control growth, (C), and test growth in the presence of drug at the five concentration levels (Ti)], the percentage growth is calculated at each of the drug concentrations levels.
Three dose response parameters are calculated for each experimental agent. […] The drug concentration resulting in total growth inhibition (TGI) is calculated from Ti=Tz. […] Values are calculated for each of these three parameters if the level of activity is reached; however, if the effect is not reached or is exceeded, the value for that parameter is expressed as greater or less than the maximum or minimum concentration tested.

HCT-116 = assay: NCI-60 screen, Colon Cancer panel; assay type: cell-based; details: Homo sapiens, HCT-116, 48 h
U87-MU (Glioma cells) = assay: Short term (72 h) cytotoxicity assay; assay type: cell-based; details: Glioma cell
[2] = test system: IGROV1 (Ovarian) Xenograft; assay: Tumor xenograft study, IGROV1; assay type: in vivo, mice
Protocol: Uniform suspensions of human breast cancer MDA-MB-231 and human ovarian cancer IGROV1 cells (2×10^6) in 100 μL (0.02 carboxymethyl cellulose in phosphate buffered saline) were injected subcutaneously into the right and left flanks of 4- to 5-week-old female athymic nude mice (Charles River Laboratories). After 10 days, when the tumor […] reaches 100 mm^3, the mice were randomly allocated to 3 groups of each containing 6 animals. […] All drug was suspended in PBS followed by sonication (15 seconds with an intermittent interval of 5 seconds) for 1 minute. Tumors were allowed to reach palpability before drug intervention. Tumor size was measured every 3 days using digital Vernier Calipers and tumor volume was calculated using the ellipsoid formula [D×(d2)]/2, where D is the large diameter of the tumor and d represents the small diameter. On day 31, the mice were euthanized and tumors were harvested for protein and gene expression studies. […] FIG. 6B depicts a graph of tumor volume vs. time for the administration of EC300 at 2.5 mg/kg twice weekly in the MDA-MB-231 (TNBC) Xenograft. […] FIG. 7 depicts a graph of tumor volume vs. time for the administration of EC300 at 5 mg/kg 5 days per week in the IGROV1 (Ovarian) Xenograft. […] STAT3 phosphorylation is reduced in tumors that underwent treatment compared to control which is an indication of LIF downstream target.

[3] = read-out: GI50 (log10GI50) (converted)
[4] = read-out: LC50 (log10LC50) (converted)

Compound: C#CC(F)(F)[C@]1(O)CCC2C3CCC4=CC(=O)CCC4=C3C(c3ccc(C4CC4)cc3)C[C@@]21C (stereo partly drawn) [EC330, 17α-(1,1-difluoro-2-propyn-1-yl)-17β-hydroxy-11β-[4-p-(cyclopropyl)phenyl]estra-4,9-dien-3-one]
- GI50 (HCT-15; [3]): 1.48 µM
- CC50 (HCT-15; [4]): > 100 µM
- GI50 (786-0; [3]): < 0.01 µM
- CC50 (786-0; [4]): < 0.01 µM
- GI50 (SK-MEL-5; [3]): 4.68 µM
- CC50 (SK-MEL-5; [4]): 43.7 µM
- GI50 (SK-MEL-28; [3]): 1.78 µM
- CC50 (SK-MEL-28; [4]): 7.76 µM
- IC50 [1]: 0.03 µM
- GI50 (T-47D; [3]): < 0.01 µM
- CC50 (T-47D; [4]): > 100 µM
- GI50 (MOLT-4; [3]): 1.7 µM
- CC50 (MOLT-4; [4]): > 100 µM
- GI50 (BT-549; [3]): 2.09 µM
- CC50 (BT-549; [4]): > 100 µM
- GI50 (HOP-92; [3]): < 0.01 µM
- CC50 (HOP-92; [4]): 0.0191 µM
- GI50 (SF-539; [3]): < 0.01 µM
- CC50 (SF-539; [4]): 0.0525 µM
- GI50 (IGROV1): < 0.01 µM
- GI50 (HCT-116; [3]): 2.82 µM
- CC50 (HCT-116; [4]): > 100 µM
- IC50 (U87-MU (Glioma cells)): 0.025 µM
- antitumor activity ([2]; 5 mg/kg (5 days per week), 4 weeks, intraperitoneally): potent antitumor activity
- apoptosis in xenograft tumors ([2]; IGR-OV1 xenograft tumors, FIG. 8): induced apoptosis dose dependently
- tumor growth ([2]; ovarian cancer model): significantly reduced
- STAT3 phosphorylation in tumors ([2]; treated vs. control): reduced
